Reference: US10975069B2, “Sigma-2 receptor ligand drug conjugates as antitumor compounds, methods of synthesis and uses thereof” (priority 2014, dated 2021)

Test: Toxicity study (necropsy, CBC, clinical chemistry) in tumor bearing mice
Type: in vivo, C57BL/6 mice
Conditions: mouse, in vivo
Description: Six adult female mice were submitted to necropsy. The strain designation of the mice was C57BL/6. […]
Animal studies were performed according to the animal studies protocol approved by Washington University Institutional Animal Care Facility. In vivo studies with mice were performed to compare the effects of SW V-49s, SV119. Erastin, a combination of SV119 with Erastin, and vehicle. […] C57BL/6 mice (6 weeks old. National Cancer Institute Laboratories) were injected in the right flank with 200 μL single cell suspension of KCKO cells in RPMI medium (25×10^4/10^5 cells per mouse). Mice were randomized into four groups (n=15). Treatment was started when the mean tumor diameter was ^˜5 mm. […] Erastin, equimolar mix of SV119 and Erastin. Tumors were measured every other day with a digital caliper. Several mice from different treatment groups were sent to the Division of Comparative Medicine in our institution for pathologic evaluation. Blood was collected for complete blood count (CBC) and biochemical analysis (AST, ALT, BUN, total bilirubin, and Cr). Organs were examined grossly and histologically.

## SW IV-134
  differences in laboratory values (biochemical analysis) versus vehicle: not statistically significant
